This note sets out measurements from PubChem BioAssay AID651836 (Sanford-Burnham Center for Chemical Genomics, 2012).

Several values for one entry are separate records, joined by “and”; a condition that tells them apart may be missing. Equal values may be shown once. Activity calls are given as the source filed them. No rule for the calls is given here.

In general, IC50 refers to the point on the concentration scale where inhibition reaches its midpoint.

For this assay, the system named is Gli-SUFU luciferase reporter cells, luminescence. Put plainly: Gli-SUFU pathway antagonists, SAR follow-up, cell-based, luciferase luminescence, set 1 (AID 651836).
`Cc1nc(NC(=O)c2ccccc2)cc(N2CCCC2)n1`: the IC50 is > 11.7 µM (inactive).
As for `CCOc1ccc(S(=O)(=O)NCc2ccncc2)cc1NC(=O)c1ccccc1`, the concentration for half-maximal inhibition (IC50) was 0.636 µM.
Take `O=C(Nc1cc(N2CCCCC2)ncn1)c1ccsc1`: the IC50 was > 11.7 µM (inactive).
As for `N#Cc1ccc(C(=O)Nc2cc(N3CCCCC3)ncn2)cc1`, the IC50 is > 11.7 µM (inactive).
`CC(C)(C)OC(=O)N1CCN(c2cc(NC(=O)c3ccccc3)ncn2)CC1`: the IC50 was > 11.7 µM (inactive).
With `COc1cc(OC)cc(C(=O)Nc2cc(N(C)C)ncn2)c1`, the IC50 is > 11.7 µM (inactive).
As to `CC(C)(C)Nc1cc(NC(=O)c2ccccc2)ncn1`, the IC50 is > 11.7 µM (inactive).
Next, `CC1CCN(c2cc(NC(=O)c3ccccc3)ncn2)CC1`: 0.037 µM; `O=C(Nc1cc(N2CCCCC2)ncn1)c1ccccc1C(F)(F)F`: > 11.7 µM (inactive).
For `CCCCN(C)c1cc(NC(=O)c2ccccc2)ncn1`, the IC50 was > 11.7 µM (inactive).
As to `COc1cccc(C(=O)Nc2cc(N3CCCCC3)ncn2)c1`, the IC50 is > 11.7 µM (inactive).
Next, `CN(C)c1cc(NC(=O)c2cccc(C#N)c2)ncn1`: > 11.7 µM (inactive).
`CCN(CC)c1cc(NC(=O)c2ccc(Br)o2)ncn1`: the IC50 is > 11.7 µM (inactive).
For the compound `O=C(Nc1cc(N2CCCCC2)ncn1)c1cccs1`, the IC50 is > 11.7 µM (inactive).
Consider `O=C(Nc1cc(N2CCCCC2)ncn1)c1ccc(Br)o1`, for which the IC50 was > 11.7 µM (inactive).
Consider `CCN(CC)c1cc(NC(=O)c2ccccc2)nc(C)n1`, for which the IC50 is > 11.7 µM (inactive).
For the compound `O=C(Nc1cc(N2CCCCCC2)ncn1)c1ccccc1`, the half-maximal inhibitory concentration (IC50) is 0.0741 µM.
Take `O=C(Nc1cc(N2CCSCC2)ncn1)c1ccccc1`: the IC50 is > 11.7 µM (inactive).
With `O=C(Nc1cc(N2CCCC2)ncn1)c1ccccc1`, the IC50 is > 11.7 µM (inactive).
Next, `N#Cc1cccc(C(=O)Nc2cc(N3CCCCC3)ncn2)c1`: > 11.7 µM (inactive); `CCC(C)Nc1cc(NC(=O)c2ccccc2)ncn1` (stereo unspecified): > 11.7 µM (inactive); `O=C(Nc1cc(N2CCCC2)ncn1)c1cccc(F)c1`: > 11.7 µM (inactive).
Regarding `CN1CCN(c2cc(NC(=O)c3ccccc3)ncn2)CC1`, the IC50 was > 11.7 µM (inactive).
With `CC(C)Nc1cc(NC(=O)c2ccccc2)ncn1`, the IC50 was > 11.7 µM (inactive).
With `O=C(Nc1cc(N2CCCCC2)ncn1)c1ccco1`, the IC50 is > 11.7 µM (inactive).
Next, `CCN(CC)c1cc(NC(=O)c2ccccc2)ncn1`: > 11.7 µM (inactive); `CC(C)CNc1cc(NC(=O)c2ccccc2)ncn1`: > 11.7 µM (inactive); `O=C(Nc1cc(N2CCCCC2)ncn1)c1cc2ccccc2s1`: > 11.7 µM (inactive).
`COc1cc(OC)cc(C(=O)Nc2cc(Nc3cccc(Cl)c3)ncn2)c1`: the IC50 is > 11.7 µM (inactive).
Take `COc1cc(OC)cc(C(=O)Nc2cc(N3CCCC3)ncn2)c1`: the IC50 is > 11.7 µM (inactive).
For the compound `Cc1nc(NC(=O)c2ccccc2)cc(N(C)C)n1`, the IC50 was > 11.7 µM (inactive).
Take `CCOc1ccc(-c2nc(CSCC(=O)NC3CC3)c(C)o2)cc1`: the IC50 is 0.0378 µM.
Next, `CN(C)c1cc(NC(=O)c2cccc(F)c2)ncn1`: > 11.7 µM (inactive); `Cc1ccc(C(=O)Nc2cc(N3CCCCC3)ncn2)cc1`: > 11.7 µM (inactive); `O=C(Nc1cc(N2CCCCC2)ncn1)c1ccc(C(F)(F)F)cc1`: > 11.7 µM (inactive).
For `CCCCNc1cc(NC(=O)c2ccccc2)ncn1`, the IC50 is > 11.7 µM (inactive).
Next, `CC(C)CNc1cc(NC(=O)c2cccc(F)c2)ncn1`: > 11.7 µM (inactive).
In the case of `O=C(Nc1cc(N2CCCCC2)ncn1)c1ccccc1`, the half-inhibitory concentration (IC50) was 0.0566 µM and 0.0242 µM.
As to `COc1cc(OC)cc(C(=O)Nc2cc(N3CCCCC3)ncn2)c1`, the IC50 was > 11.7 µM (inactive).
As for `CCN(CC)c1cc(NC(=O)c2ccccc2F)ncn1`, the IC50 was 0.556 µM.
As for `O=C(Nc1cc(N2CCCCC2)ncn1)c1ccc2ccccc2c1`, the IC50 was > 11.7 µM (inactive).
Turning to `CCN(CC)c1cc(NC(=O)c2cc(OC)cc(OC)c2)ncn1`, the IC50 is > 11.7 µM (inactive).
Next, `O=C(Nc1cc(N2CCCCC2)ncn1)c1ccccc1F`: 0.176 µM; `O=C(Nc1cc(N2CCCC2)ncn1)c1ccccc1F`: > 11.7 µM (inactive); `Cc1nc(NC(=O)c2ccccc2)cc(N2CCCCC2)n1`: > 11.7 µM (inactive).
As for `CN(C)c1cc(NC(=O)c2ccccc2)ncn1`, the IC50 is > 11.7 µM (inactive).
With `O=C(Nc1cc(N2CCCCC2)ncn1)c1cccc2ccccc12`, the IC50 was > 11.7 µM (inactive).
For the compound `O=C(Nc1cc(N2CCOCC2)ncn1)c1ccccc1`, the IC50 is > 11.7 µM (inactive).
Consider `O=C(Nc1cc(N2CCCCC2)ncn1)c1ccc(Cl)cc1`, for which the IC50 is > 11.7 µM (inactive).
To `CC1CCCCN1c1cc(NC(=O)c2ccccc2)ncn1` (stereo unspecified) belongs > 11.7 µM (inactive); to `CN(C)c1cc(NC(=O)c2ccccc2F)ncn1`, > 11.7 µM (inactive); to `O=C(Nc1cc(N2CCCCC2)ncn1)c1cccc(F)c1`, > 11.7 µM (inactive).
Regarding `CCN(CC)c1cc(NC(=O)c2cccc(C#N)c2)ncn1`, the IC50 was > 11.7 µM (inactive).
Take `O=C(Nc1cc(NCC2CCCO2)ncn1)c1ccccc1` (stereo unspecified): the IC50 is > 11.7 µM (inactive).
Turning to `O=C(Nc1cc(N2CCNCC2)ncn1)c1ccccc1`, the IC50 is > 11.7 µM (inactive).
Regarding `CCN(CC)c1cc(NC(=O)c2cccc(F)c2)ncn1`, the IC50 was > 11.7 µM (inactive).
